Results as given in patent US20260232666A1, “COMPOSITIONS AND METHODS FOR INHIBITION OF RAS” (TheRas, Inc., priority 2023, published 2026).

How the values were obtained:
[1] = target: T1, GppNHp-loaded KRAS4b (amino acids 1-169) G12C/C118S protein (Homo sapiens, UniProt P01116, C118S/G12C); assay: Covalent cysteine 12 modification by MALDI-TOF MS, GppNHp-loaded KRAS G12C; type: binding; conditions: 15 minutes reaction time point
T1 construct: KRAS4b (amino acids 1-169) G12C/C118S protein; made in house
Procedure, shortened: (§1)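 1 μM protein + cpd (1:2.5), HEPES 20 mM/NaCl 150 mM/MgCl2 1 mM pH 7.3, RT, dark, 15 min. Linear MALDI-TOF, sinapinic acid matrix. % mod = modified/(modified + unmodified) peak height.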

[2] = target: T2, GDP-loaded KRAS4b (amino acids 1-169) G12C/C118S protein (Homo sapiens, UniProt P01116, C118S/G12C); assay: Covalent cysteine 12 modification by MALDI-TOF MS, GDP-loaded KRAS G12C; type: binding; conditions: 15 minutes reaction time point
T2 construct: KRAS4b (amino acids 1-169) G12C/C118S protein; made in house
Procedure, shortened: as §1

[3] = target: T3, Avi-KRAS G12C (1-169) GppNHp/RAF1 RBD-3×FLAG (52-151) (Homo sapiens, UniProt P01116, G12C); assay: Raf1 RBD-KRAS G12C-GppNHp disruption assay (protein:protein interaction HTRF); type: biochemical
T3 construct: Avi-KRAS G12C (1-169) GppNHp; Avi (N)
Procedure, shortened: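 HTRF measuring RAF1 RBD binding to GppNHp-loaded KRAS G12C (50 nM) in Tris pH 7.5, 100 mM NaCl, 5 mM MgCl2, 10% DMSO. Compound, KRAS, RBD and detection reagents each added sequentially with 1 h room-temperature incubations; 10-point titration; excitation 320 nm, emission 615 nm; activity as % of DMSO; IC50 derived.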

SMILES | GppNHp-KRAS G12C percent of modification [1] | GDP-KRAS G12C percent of modification [2] | IC50 [3] [µM]
C=CC(=O)N1C[C@H](N(C)c2nc(OC[C@@H]3CCCN3C)nc3c(F)c(-c4ccc(F)c5sc(N)c(C#N)c45)c(C(F)(F)F)cc23)C[C@H]1C [Compound 147] | A (percent of modification ≥70%) | A (percent of modification ≥70%) | < 0.5
C=CC(=O)N1C[C@H](N(C)c2nc(OC[C@@]34CCCN3C[C@H](F)C4)nc3cc(-c4ccc(F)c5sc(N)c(C#N)c45)c(F)cc23)C[C@H]1C [Compound 148] | A (percent of modification ≥70%) | A (percent of modification ≥70%) | < 0.5
C=CC(=O)N1CC[C@@H](N(CC)c2nc(OC[C@@]34CCCN3C[C@H](OC)C4)nc3cc(-c4ccc(F)c5sc(N)c(C#N)c45)c(F)cc23)[C@H]1C [Compound 149] | A (percent of modification ≥70%) | A (percent of modification ≥70%) | < 0.5
C=CC(=O)N1CC[C@@H](N(CC)c2nc(OC[C@@]34CCCN3C[C@H](OC)C4)nc3c(F)c(-c4ccc(F)c5sc(N)c(C#N)c45)c(C(F)(F)F)cc23)[C@H]1C [Compound 150] | A (percent of modification ≥70%) | A (percent of modification ≥70%) | < 0.5
C=CC(=O)N1C[C@H](N(C)c2nc(OC[C@@H]3CCCN3C)nc3c(F)c(-c4ccc(F)c5sc(N)c(C#N)c45)c(C(F)(F)F)cc23)C[C@@H]1C [Compound 153] | A (percent of modification ≥70%) | A (percent of modification ≥70%) | < 0.5
C=CC(=O)N1CC[C@@H](N(CC)c2nc(OC[C@@H]3CCCN3C)nc3c(F)c(-c4nc(N)cc(C)c4C(F)(F)F)c(C(F)(F)F)cc23)[C@H]1C [Compound 155] | C (10%≤percent of modification <50%) | C (10%≤percent of modification <50%) | < 0.5
C=CC(=O)N1CC[C@@H](N(C)c2nc(OC[C@]34CCCN3C[C@H](OC)C4)nc3c(F)c(-c4ccc(F)c5sc(N)c(C#N)c45)c(C(F)(F)F)cc23)[C@H]1C [Compound 156] | A (percent of modification ≥70%) | A (percent of modification ≥70%) | < 0.5
C=CC(=O)N1CC[C@@H](N(CC)c2nc(OC[C@]34CCCN3C[C@H](OC)C4)nc3c(F)c(-c4ccc(F)c5sc(N)c(C#N)c45)c(C(F)(F)F)cc23)[C@H]1C [Compound 158] | A (percent of modification ≥70%) | A (percent of modification ≥70%) | < 0.5
C=CC(=O)N1CC[C@@H](N(CC)c2nc(OC[C@]34CCCN3C[C@H](F)C4)nc3c(F)c(-c4ccc(F)c5sc(N)c(C#N)c45)c(C(F)(F)F)cc23)[C@H]1C [Compound 159] | A (percent of modification ≥70%) | A (percent of modification ≥70%) | < 0.5
C=CC(=O)N1CC[C@@H](N(C)c2nc(OC[C@]34CCCN3C[C@H](OC)C4)nc3c(F)c(-c4ccc(F)c5sc(N)c(C#N)c45)c(Cl)cc23)[C@H]1C [Compound 161] | A (percent of modification ≥70%) | A (percent of modification ≥70%) | < 0.5
C=CC(=O)N1CC[C@@H](N(CC)c2nc(OC[C@@]34CCCN3C[C@H](OC)C4)nc3c(F)c(-c4ccc(F)c5sc(N)c(C#N)c45)c(Cl)cc23)[C@H]1C [Compound 163] | A (percent of modification ≥70%) | A (percent of modification ≥70%) | < 0.5
C=CC(=O)N1CC[C@@H](N(CC)c2nc(OC[C@]34CCCN3C[C@H](OC)C4)nc3c(F)c(-c4ccc(F)c5sc(N)c(C#N)c45)c(Cl)cc23)[C@H]1C [Compound 164] | A (percent of modification ≥70%) | A (percent of modification ≥70%) | < 0.5
C=CC(=O)N1CC[C@@H](N(CC)c2nc(OC[C@]34CCCN3C[C@H](F)C4)nc3c(F)c(-c4ccc(F)c5sc(N)c(C#N)c45)c(Cl)cc23)[C@H]1C [Compound 165] | A (percent of modification ≥70%) | A (percent of modification ≥70%) | < 0.5
C=CC(=O)N1CC[C@@H](N(CC)c2nc(OC[C@]34CCCN3C[C@H](F)C4)nc3cc(-c4ccc(F)c5sc(N)c(C#N)c45)c(F)cc23)[C@H]1C [Compound 167] | A (percent of modification ≥70%) | A (percent of modification ≥70%) | < 0.5
C=CC(=O)N1CC[C@@H](N(CC)c2nc(OC[C@]34CCCN3C[C@H](OC)C4)nc3c(F)c(-c4ccc(F)c5sc(N)c(C#N)c45)ccc23)[C@H]1C [Compound 169] | A (percent of modification ≥70%) | A (percent of modification ≥70%) | < 0.5
